Results from patent US10053463B2 (Janssen Pharmaceutica NV, priority 2013, dated 2018).

Legend:
[1] = molecular target: T1, P2X7 (Homo sapiens (Human), UniProt Q99572); assay: Radioligand binding, human P2X7-1321N1 cell membranes, tracer tritiated A-804598; settings: Table 3 (additional runs)
Protocol: P2X7 Antagonism in Recombinant Human P2X7 Cells or Recombinant Rat P2X7 Cells: (a) Ca^2+ Flux and (b) Radioligand Binding
(b) Radioligand Binding: human or rat P2X7-1321N1 cells were collected and frozen @−80° C. On the day of the experiment, cell membrane preparations were made according to standard published methods. The total assay volume was 100 μl:10 μl compound (10×)+(b) 40 μl tracer (2.5×)+50 μl membrane (2×). The tracer used for the assay was tritiated A-804598. The compound can be prepared as described in the literature. (Donnelly-Roberts, D. Neuropharmacology 2008, 56 (1), 223-229.) Compounds, tracer and membranes were incubated for 1 hour @ 4° C. The assay was terminated by filtration (GF/B filters pre-soaked with 0.3% PEI) and washed with washing buffer (Tris-HCl 50 mM). The IC50 generated in the binding assay was corrected for tracer concentration and affinity of the tracer to derive at the affinity (K) of the test compounds. […] Data are analyzed and graphed on Graphpad Prism 5. For analysis, each concentration point is averaged from triplicate values and the averaged values are plotted on Graphpad Prism.

[2] = molecular target: T1, P2X7; assay: P2X7 antagonism in human peripheral blood mononuclear cells (PBMCs), IL-1β release; format: cell-based; settings: Table 3 (additional runs); for remaining activity at 10 µM: P2X7, 10 μM compound, read-out: PBMC 10 μM (% control)
How it was run: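 Ficoll-isolated human PBMCs primed with LPS (30 ng/ml) for 1 h, treated with compound for 30 min, then stimulated with 0.5 mM Bz-ATP for 1.5 h. Supernatant IL-1β measured by ELISA as % of LPS+Bz-ATP minus LPS-only release; IC50 from concentration–response of triplicate means.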

T1 sequence (Q99572 whole entry): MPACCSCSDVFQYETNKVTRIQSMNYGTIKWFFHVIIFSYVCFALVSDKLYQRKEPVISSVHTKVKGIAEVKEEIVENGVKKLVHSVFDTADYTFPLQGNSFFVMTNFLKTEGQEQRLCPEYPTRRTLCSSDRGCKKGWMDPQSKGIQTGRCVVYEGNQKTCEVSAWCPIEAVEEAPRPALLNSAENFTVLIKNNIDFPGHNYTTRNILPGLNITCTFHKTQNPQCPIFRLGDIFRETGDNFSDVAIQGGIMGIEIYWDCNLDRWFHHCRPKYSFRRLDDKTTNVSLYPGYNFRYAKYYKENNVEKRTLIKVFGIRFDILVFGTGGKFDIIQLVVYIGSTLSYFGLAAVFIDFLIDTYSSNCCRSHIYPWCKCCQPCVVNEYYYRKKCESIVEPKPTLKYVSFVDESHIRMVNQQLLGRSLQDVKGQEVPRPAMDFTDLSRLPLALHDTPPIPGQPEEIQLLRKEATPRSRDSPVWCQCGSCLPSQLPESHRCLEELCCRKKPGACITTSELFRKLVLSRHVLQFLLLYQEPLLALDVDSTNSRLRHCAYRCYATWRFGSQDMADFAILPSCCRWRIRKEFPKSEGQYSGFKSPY

What does the source list for `C[C@H]1Cn2c(-c3ccccn3)nnc2-c2nnc(-c3cccc(C(F)(F)F)c3Cl)n21` [Example 124, (S)-3-(2-chloro-3-(trifluoromethyl)phenyl)-5-methyl-8-(pyridin-2-yl)-5,6-dihydrobis([1,2,4]triazolo)[4,3-a:3′,4′-c]pyrazine]?
Ki [1]: 3.6 nM; remaining activity at 10 µM [2]: -4.2%

With `Cc1ccnc(-c2nnc3n2C[C@H](C)n2c(-c4cccc(C(F)(F)F)c4Cl)nnc2-3)c1` [Example 125, (S)-3-(2-chloro-3-(trifluoromethyl)phenyl)-5-methyl-8-(4-methylpyridin-2-yl)-5,6-dihydrobis([1,2,4]triazolo)[4,3-a:3′,4′-c]pyrazine] as the molecule, how does the Ki [1] read?
The Ki was 10.5 nM.

And the remaining activity at 10 µM [2]?
Its remaining activity at 10 µM is 28.5%.

Which Ki [1] does the source give for `C[C@H]1Cn2c(-c3ccc(F)cn3)nnc2-c2nnc(-c3cccc(Cl)c3Cl)n21` [Example 126, (S)-3-(2,3-dichlorophenyl)-8-(5-fluoropyridin-2-yl)-5-methyl-5,6-dihydrobis([1,2,4]triazolo)[4,3-a:3′,4′-c]pyrazine] here?
The Ki was 12.6 nM.

What about the remaining activity at 10 µM [2] of the same molecule?
The remaining activity at 10 µM was -0.5%.

With `C[C@H]1Cn2c(-c3ccc(F)cn3)nnc2-c2nnc(-c3ccc(Cl)cc3Cl)n21` [Example 127, (S)-3-(2,4-dichlorophenyl)-8-(5-fluoropyridin-2-yl)-5-methyl-5,6-dihydrobis([1,2,4]triazolo)[4,3-a:3′,4′-c]pyrazine] as the molecule, how does the Ki [1] read?
Its Ki is 10 nM.

And the remaining activity at 10 µM [2]?
The remaining activity at 10 µM was 0.1%.

With `Cc1c(-c2nnc3n2[C@@H](C)Cn2c(-c4ccc(F)cn4)nnc2-3)cccc1C(F)(F)F` [Example 128, (S)-8-(5-fluoropyridin-2-yl)-5-methyl-3-(2-methyl-3-(trifluoromethyl)phenyl)-5,6-dihydrobis([1,2,4]triazolo)[4,3-a:3′,4′-c]pyrazine] as the molecule, how does the Ki [1] read?
Its Ki is 6.3 nM.

And the remaining activity at 10 µM [2]?
Its remaining activity at 10 µM is 3.8%.

What does the source list for `COc1ccnc(-c2nnc3n2C[C@H](C)n2c(-c4cccc(Cl)c4Cl)nnc2-3)c1` [Example 129, (S)-3-(2,3-dichlorophenyl)-8-(4-methoxypyridin-2-yl)-5-methyl-5,6-dihydrobis([1,2,4]triazolo)[4,3-a:3′,4′-c]pyrazine]?
Ki [1]: 10 nM; remaining activity at 10 µM [2]: -0.2%

Which Ki [1] does the source give for `COc1ccnc(-c2nnc3n2C[C@H](C)n2c(-c4ccc(Cl)cc4Cl)nnc2-3)c1` [Example 130, (S)-3-(2,4-dichlorophenyl)-8-(4-methoxypyridin-2-yl)-5-methyl-5,6-dihydrobis([1,2,4]triazolo)[4,3-a:3′,4′-c]pyrazine] here?
The Ki was 6.3 nM.

What about the remaining activity at 10 µM [2] of the same molecule?
The remaining activity at 10 µM was -0.7%.

Which Ki [1] does the source give for `COc1ccnc(-c2nnc3n2C[C@H](C)n2c(-c4cccc(C(F)(F)F)c4C)nnc2-3)c1` [Example 131, (S)-8-(4-methoxypyridin-2-yl)-5-methyl-3-(2-methyl-3-(trifluoromethyl)phenyl)-5,6-dihydrobis([1,2,4]triazolo)[4,3-a:3′,4′-c]pyrazine] here?
Its Ki is 5 nM.

And the remaining activity at 10 µM [2]?
Its remaining activity at 10 µM is 0.7%.

How did the Ki [1] turn out when `FC(F)(F)c1cccc(-c2nnc3n2CCn2c(-c4cnccn4)nnc2-3)c1Cl` [Example 132, 3-[2-Chloro-3-(trifluoromethyl)phenyl]-8-pyrazin-2-yl-5,6-dihydrobis[1,2,4]triazolo[4,3-a:3′,4′-c]pyrazine] was run?
The Ki was 28.2 nM.

What about the “PBMC 1 μM (% control)” value ([2]; 1 μM compound) of the same molecule?
Its value is 50.7 % control.
